Patent US5911990A, “T-cell receptor peptides and methods for preventing the progression to AIDS in an animal model” (Arizona Board of Regents on Behalf of the University of …, priority 1996, dated 1999)
Ends that are not written are not given here.

Assay: Body weight (Example 2)
Type: in vivo, mice
Settings: various levels of peptide injection or time course of injection postinfection
Excerpt: Female C57BL/6 mice, 4-weeks old, were obtained from Charles River Laboratories Inc. (Wilmington, Del.). Animals were cared for as required by the University of Arizona Committee on Animal Research. After 2 weeks housing in the animal facility in the Arizona Health Science Center (Tucson, Ariz.), they were randomly assigned to one of the following treatments with 8 mice per group for study A: (1) uninfected, normal mice; (2) uninfected, normal mice injected with saline (pyrogen free); (3) LP-BM5-infected mice injected with 5 μg TCR Vβ CDRI peptide; (4) LP-BM5infected mice injected with 25 μg TCR Vβ CDR1 peptide; (5) LP-BM5 infected mice injected with 100 μg TCR Vβ CDR1 peptide; (6) LP-BM5-infected mice injected with 200 μg TCR Vβ CDR1 peptide; (7) LP-BM5-infected mice injected with 500 μg TCR Vβ CDR1 peptide; (8) LP-BM5-infected mice injected with saline and 200 μg Poly AU adjuvant; (9) LP-BM5-infected mice injected with 25 μg TCR Vβ CDR1 peptide and 230 μg Poly AU adjuvant; (10) LP-BM5-infected mice injected with saline and 230 μg Ribi MPL TDM CWS adjuvant; (11) LP-BM5-infected mice injected with 5 μg TCR Vβ CDR1 peptide and 230 μg Ribi MPL TDM CWS adjuvant; and (12) LP-BM5-infected mice injected with 25 μg TCR Vβ CDR1 peptide and 230 Ribi MPL TDM CWS adjuvant.
Administration of peptides (dissolved in saline) and adjuvants were performed 2 weeks after LP-BM5 infection. […]

## CKPISGHNSLFWYRQT [TCR Vβ CDR1 peptide, Cys Lys Pro Ile Ser Gly His Asn Ser Leu Phe Trp Tyr Arg Gln Thr]
  body weight of the mice: not affected
